# Data reported in US20050079176A1, “Treating stress response with chemokine receptor ccr5 modulators” (priority 2002, published 2005).
# Several values for one entry are separate records, joined by “and”; a condition that tells them apart may be missing. Equal values may be shown once. Entries after “also recorded” stand apart in the source; their conditions may differ.
# How the values were obtained:
# [1] = system: IL6; experiment: Serum IL6 by DuoSet ELISA pre and post heterotopic heart transplant; assay type: in vivo, cynomolgus monkeys
# Procedure: IL1β and IL6 can be measured using the DuoSet ELISA development kits from R&D Systems (Minneapolis, Minn.), following the directions of the manufacturer. Briefly, plates are coated with capture antibody [mouse anti-human IL1β (2 μg/ml) or mouse anti-human IL6 (4 μg/ml)] and detection antibodies are used at 100 ng/ml (biotinylated goat anti-human IL1β) or 200 ng/ml (biotinylated goat anti-human IL6). Standards are prepared with recombinant protein (3.9-250 pg/ml for IL1β and 4.7-300 pg/ml for IL6). Streptavidin conjugated to horseradish peroxidase and H2O2/tetramethylbenzidine are used for color development. Optical density (OD) is measured at 450 nm, with correction at 570 nm.
# Serum samples were taken from the cynomolgus monkeys in Example 1 at various time points pre- and post-transplantation. The samples were diluted 1:2, in PBS/0.1% BSA/0.05% Tween 20. (PBS=phosphate buffered saline; BSA=bovine serum albumin.) IL6 levels (pg/ml) in pre and post heterotopic heart transplant in serum from the cynomolgus monkeys treated with Compound A were determined obtained in accordance with the above-described procedure.
# [2] = biological target: T1, CCR5 receptor (Macaca fascicularis, UniProt P61814); experiment: Receptor occupancy corresponding to plasma concentration; assay type: binding; settings: at a concentration of 100 nM
# T1 construct: endogenous in cells; host or cells: cynomolgus monkey (in vivo, CCR5-bearing leukocytes)
# [3] = Plasma trough concentrations by LC-MS/MS; assay type: in vivo, Macaca fascicularis; settings: cynomolgus plasma, Compound A i.v. b.i.d.
# [4] = system: IL6; experiment: Cytometric Bead Array Human Inflammation Kit, serum/plasma on day of explant: IL6; assay type: in vivo, cynomologous monkeys
# Procedure: (§1) Serum and plasma samples taken from the cynomologous monkeys in Example 1 on the day of explant (i.e., the day of graft rejection) were analyzed using the BD Pharmingen Cytometric Bead Array Human Inflammation Kit, which can measure IL1-β, IL6, IL8, IL10, IL12p70 and TNF-α. Reagents to detect IL6, IL8 and TNF-α have been shown by the manufacturer to cross react with rhesus and cynomologus monkey proteins. At the time of the assay, reagents to measure IL1-beta and IL12p70 had not yet been tested for cross reactivity to non-human primate proteins.
# Samples were assayed in the manner described in the manufacturer's protocol booklet; i.e., “Human Inflammation Kit—Instruction Manual” (BD Biosciences, Cat. No. 551811, pdf copy available at www.bdbiosciences.com). Briefly, assay standards were reconstituted with assay diluent and diluted in two fold steps by serial dilution. Capture beads were mixed and distributed into an appropriate number of 12×75 mm polystyrene tubes. Standards or samples were added to the tubes and incubated in the dark at room temperature for 1.5 hours. The incubated tubes were washed once and phycoerythrin (PE)-labeled detection antibody reagent was added. Samples were again incubated in the dark at room temperature for 1.5 hours. After one final wash, samples were resuspended in 300 uL of wash buffer. Flow cytometer data was acquired using a Becton Dickinson FACSCalibur and analyzed with Becton Dickinson CBA Software.
# [5] = system: IL8; experiment: Cytometric Bead Array Human Inflammation Kit, serum/plasma on day of explant: IL8; assay type: in vivo, cynomologous monkeys; settings: Compound A-treated monkeys
# Procedure: as §1
# Samples were assayed in the manner described in the manufacturer's protocol booklet; i.e., “Human Inflammation Kit—Instruction Manual” (BD Biosciences, Cat. No. 551811, pdf copy available at www.bdbiosciences.com). Briefly, assay standards were reconstituted with assay diluent and diluted in two fold steps by serial dilution. Capture beads were mixed and distributed into an appropriate number of 12×75 mm polystyrene tubes. Standards or samples were added to the tubes and incubated in the dark at room temperature for 1.5 hours. The incubated tubes were washed once and phycoerythrin (PE)-labeled detection antibody reagent was added. Samples were again incubated in the dark at room temperature for 1.5 hours. […] Flow cytometer data was acquired using a Becton Dickinson FACSCalibur and analyzed with Becton Dickinson CBA Software.
# [6] = system: cynomolgus cardiac allografts; experiment: Cardiac allograft survival / graft function after heterotopic transplantation; assay type: in vivo, Macaca fascicularis
# Description: Cynomolgus macaques (Macaca fascicularis), weighing 2.4-4.7 kg, and ranging in estimated age from 2.2-5.5 years were selected as organ recipients. Donors were matched to recipients by AB blood type compatibility as tested by New York University, Nelson Institute of Environmental Medicine, Tuxedo, N.Y. MHC class II mismatch was assured by a stimulation index (SI)>3 in paired animals in unidirectional mixed lymphocyte reaction (MLR) using potential donor lymphocytes as stimulators and potential recipient peripheral blood mononuclear cells (PBMCs) as responders. Animals were matched by assigning pairs with maximal MLR response within groups of blood type compatible animals.
# Donor operation: After systemic heparinization (70 units/kg, Elkins-Sinn Inc., Cherry Hill, N.J.) and collection of donor blood during equivolemic saline infusion, diastolic arrest of the donor heart was induced with University of Wisconsin organ preservation solution (15-20 cc/kg, 4° C.) via the aortic root. The heart was explanted and prepared: The mitral valve was rendered incompetent surgically, to prevent left ventricular distention, and an atrial septal defect was created by excising the fossa ovalis, to allow blood entering the left heart through the thebesian circulation to transit to and be ejected from the right heart.
# Recipient operation: All recipient animals underwent traditional non-working intraabdominal cardiac allograft transplantation using a single clamp technique, wherein the donor aorta was anastomosed end-to-side to the infrarenal abdominal aorta, and the donor pulmonary artery was anastomosed to the adjacent vena cava. Heparin (70 Units/kg) (a Unit is equivalent to 3 mg/kg of body weight) was administered to the recipient prior to clamp placement. A silicon central venous catheter was introduced via the internal jugular vein, and tunneled to exit between the scapulae. Catheters were attached to swivel connection systems, and animals placed in protective cloth jackets incorporating a swiveling system which protected venous access.
# Graft function and body temperature were assessed twice daily by monitoring with a fully implantable telemetry device (Data Sciences International, St. Paul, Minn.) (electrocardiogram (EKG), right ventricular pressure and animal body temperature) implanted at the time of transplantation. Confirmatory abdominal ultrasounds were performed at the time of protocol biopsies and whenever an examiner appreciated decreased contractility, if EKG voltage or rate (<120 beats per minute) was decreased, or if developed pulse pressure (delta P) in the graft was decreased. Cardiac biopsies were performed by protocol on postoperative days 4, 7, 14, through a laparotomy incision using a core biopsy needle. Graft failure was defined as loss of palpable graft activity, with ultrasound confirmation of weak or absent myocardial contractility. Failed grafts were explanted promptly and examined histologically.
# Three animals received Compound A as monotherapy at a dose of 5 mg/kg, two animals received Compound A as monotherapy at a dose of 10 mg/kg, and three animals received an equivalent volume of saline (control). Compound A was administered intravenously twice daily at 12 hour intervals (i.e., b.i.d.) starting at transplant. […] The dose on the first day was 12.5 mg/kg, then 10 mg/kg daily for 7 days, then 5 mg/kg daily for 7 days, then 2.5 mg/kg/day until graft rejection or animal sacrifice.
# [7] = system: IL1-beta mRNA expression in RANTES-stimulated macrophages; experiment: Cytokine mRNA expression (TaqMan) in RANTES-stimulated human macrophages: IL1-beta; assay type: cell-based; settings: RANTES 250 nM
# Procedure: (§2) Human monocytes were isolated white blood cells concentrated from units of blood (i.e., leukopaks) from normal donors. To enhance CCR5 expression, the monocytes were cultured under suspension conditions in Teflon jars for 2 days in media supplemented with 12% fetal bovine serum. 10^6 cells were seeded and allowed to attach for over 2 hours in 6-well tissue culture plates. Cells were pre-incubated with either dimethylsulfoxide (DMSO; vehicle control) or Compound A at various concentrations for 1 hour, after which RANTES (the CCR5 agonist/ligand; Pepro Tech Inc.) was added at 250 nM, or, alternatively, media was added as a control. The cells were incubated at 37° C. for 24 hours, after which the media were removed and centrifuged to precipitate the non-adherent cells. Both the adhered and non-adhered cells were lysed and subjected to mRNA isolation, and the mRNA isolate was analyzed for cytokine expression by quantitative real time PCR (TaqMan). The relative mRNA-fold induction of cytokine gene expression in the RANTES-stimulated macrophages was calculated relative to day 2 non-stimulated, non-treated controls (i.e. fold induction=1 on day 2 for controls), as well as fold mRNA induction relative to vehicle (DMSO) (0 nM) control RANTES stimulated cells.
# [8] = system: IL6 mRNA expression in RANTES-stimulated macrophages; experiment: Cytokine mRNA expression (TaqMan) in RANTES-stimulated human macrophages: IL6; assay type: cell-based; settings: RANTES 250 nM
# Procedure: as §2
# [9] = system: CCR5+ cells; experiment: Double-label immunofluorescence microscopy of leukocytes infiltrating rejecting allografts; assay type: in vivo, Macaca fascicularis; settings: in association with CCR5 blockade
# Description: Double-label immunofluorescence microscopy using antibodies specific for CD3, CD68, CD11b, CCR5 and CXCR3 was used to characterize leukocyte populations infiltrating acutely rejecting (days 4, 6) cynomolgus cardiac allografts. CCR5 and CXCR3 are prominent on monocytes/macrophages and to a lesser extent on T-cells in rejecting cynomolgus heart allografts. Co-localization of CCR5 and CXCR3 to the same cells was common, particularly on the […] monocyte/macrophage population. Infiltration of CCR5+ cells was inhibited in association with CCR5 blockade. Graft failure was identified by a decrease in heart rate and ST elevation (associated with ischemia) on EKG and a decrease in arterial line pressure. […] (Note: n=7 refers to the data for the 3 control (i.e., saline) monkeys in this experiment plus data for 4 animals from a historic database that were scored as controls in which cyno cardiac allografts were rejected in the absense of immunosupression in a manner identical to the three controls in this experiment.)
# [10] = system: Cynomolgus macaques (Macaca fascicularis); experiment: Fever suppression after cardiac allotransplantation (telemetry body temperature, behaviour); assay type: in vivo; settings: for monkeys that did not develop a fever (temperature greater than 38.5° C.): while recovering from transplantation, seven monkeys treated with CCR5 antagonist (alone or with cyclosporin)
# [11] = Homo sapiens, Macrophage, Compound A 10 nM, 24 hours, mean ± SD
# [12] = Homo sapiens, Macrophage, Compound A 30 nM, 24 hours, mean ± SD
# [13] = Homo sapiens, Macrophage, Compound A 300 nM, 24 hours, mean ± SD
smiles,measurement,setting,value
CCn1nc(Cc2ccccc2)cc1C1CCN(C[C@H]2C[C@H](N(C)[C@@H](C(=O)O)C(C)C)C[C@@H]2c2cccc(F)c2)CC1 [Compound A],"IL6 level, Day 0 Post","[1]; serum post-transplantation, Compound A monotherapy 10 mg/kg/day b.i.d., M308, M627",63.7 pg/mL and 106.2 pg/mL
same,"IL6 level, Day 0 Pre","[1]; serum pre-transplantation, animals M308, M627 later given Compound A monotherapy 10 mg/kg/day b.i.d.",4.6 pg/mL and 3.4 pg/mL
same,"IL6 level, Day 8","[1]; serum, Compound A monotherapy 10 mg/kg/day b.i.d., M308",24.3 pg/mL
same,receptor occupancy at 0.1 µM,[2],~90%
same,trough plasma concentration (levels fell below target range at trough),[3],< 100 nM
same,IL6 on day of explant,"[4]; M308, Compound A monotherapy at 10 mg/kg/day b.i.d., explant day 8",58 pg/mL
same,IL6 on day of explant,"[4]; M627, Compound A 10 mg/kg b.i.d., steroid rescue day 9, combined therapy with CsA 43 days, Compound A monotherapy from day 52, explant day 85",20 pg/mL
same,IL6 cytokine levels at the time of graft rejection relative to monkeys treated only with CsA,[4]; monkeys treated with Compound A,suppressed
same,IL8 cytokine levels at the time of graft rejection relative to CsA-only treated monkeys,[5],did not indicate suppression of IL8 levels
same,Graft survival,"[6]; Compound A monotherapy 5 mg/kg i.v. b.i.d., n=3, controls 6±0.4 days (n=7), p=0.05",8.3 ± 0.6 days
same,Explant Day (day of graft rejection),"[6]; M308, Compound A monotherapy at 10 mg/kg/day b.i.d.",8
same,Explant Day (day of graft rejection),"[6]; M627, Compound A 10 mg/kg b.i.d., rescued day 9 with bolus steroids, combined therapy with CsA 43 days, from day 52 Compound A monotherapy",85
same,day to which vigorous graft function persisted,"[6]; one animal: Compound A alone 10 mg/kg b.i.d., rescued day 9 with bolus steroids, combined therapy with CsA 43 days, CsA stopped day 52, Compound A continued",83 days and 78 days
same,inhibition at 0.003 µM,"[7]; Homo sapiens, Macrophage, Compound A 3 nM, 24 hours, mean ± SD",37.6%
same,inhibition at 0.01 µM,[7]; [11],50.1%
same,inhibition at 0.03 µM,[7]; [12],59%
same,inhibition at 0.1 µM,"[7]; Homo sapiens, Macrophage, Compound A 100 nM, 24 hours, mean ± SD",76.8%
same,inhibition at 0.3 µM,[7]; [13],80.6%
same,effect on IL1-β mRNA up-regulation by RANTES,[7]; human macrophages,diminish IL1-β and IL6 up-regulation significantly; also recorded: dose-dependent
same,inhibition at 0.003 µM,"[8]; Homo sapiens, Macrophage, Compound A 3 nM, 24 hours",43%
same,inhibition at 0.01 µM,[8]; [11],16.1%
same,inhibition at 0.03 µM,[8]; [12],65.9%
same,inhibition at 0.1 µM,"[8]; Homo sapiens, Macrophage, Compound A 100 nM, 24 hours",67.1%
same,inhibition at 0.3 µM,[8]; [13],85.9%
same,effect on IL6 mRNA up-regulation by RANTES,[8]; human macrophages,diminish IL1-β and IL6 up-regulation significantly; also recorded: dose-dependent
same,Infiltration of CCR5+ cells into cardiac allografts,[9],inhibited
same,malaise,"[10]; after cardiac allotransplantation, in contrast to the five control animals",not to exhibit malaise
same,symptoms of abdominal tenderness,[10]; after transplant and during rejection of the graft,did not exhibit any symptoms of abdominal tenderness
same,recovery from surgery (how quickly normal activity levels resumed),[10]; despite additional procedures on days 4 and 7-8,recovered more quickly from surgery
same,average temperature,"[10]; first three days after allograft implantation, six of the seven animals treated with Compound A (5 or 10 mg/kg b.i.d. i.v., alone or with CsA)",below 37.5 °C
same,"average temperature difference versus control monkeys (saline, no immunosuppressive therapy)",[10]; first three days after surgery,about one degree lower
same,average temperature difference versus cyclosporin-only-treated animals,[10]; first three days after surgery,one half degree lower; also recorded: about 0.5 °C
same,average temperature over the first three days after surgery,"[10]; monkeys with cardiac allografts, control (saline) ca. 38.5° C.",circa 37.5 °C
same,animals in which individual temperature elevations reached 38.5° C. on any occasion,[10]; of the seven animals treated with Compound A,3
same,monkeys that did not develop a fever (temperature greater than 38.5° C.),[10],six of seven
same,monkeys that did not develop a fever (temperature greater than 38.5° C.),[10]; listed as CCR5 antagonist,Six out of the seven
